Here are results for four molecules from paper PMC4890880 (ACS infectious diseases, 2016).

pIC50: −log10 of the molar value. Like-named read-outs stand apart in the source and are kept apart here. Where only a bound is given, the exact number is not on record here.

In assay [1] the test system is Plasmodium berghei (Pb-Luc) exoerythrocytic-stage parasites. As to conditions: for normalized signal at concentration 0.000508053 / normalized signal at concentration 0.00152416 / normalized signal at concentration 0.00457247 / normalized signal at concentration 0.0137174 / normalized signal at concentration 0.0411523 / normalized signal at concentration 0.123457 / normalized signal at concentration 0.37037 / normalized signal at concentration 1.11111 / normalized signal at concentration 3.33333 / normalized signal at concentration 10: fraction of control; for pIC50: read-out: PbLuc_IC50.

Assay [2] has as its system HepG2-A16-CD81EGFP cells. As to conditions: for pIC50: read-out: Tox_IC50, HepG2 cytotoxicity.
[3] abbreviates: second series of columns (replicate).
The mark [4] stands for this setting: sheet 2nd round, maximal inhibition in dose response.
[5] abbreviates: first series of dose-response columns.
Setting [6] is: sheet 2nd round, Broad compounds, dose response.
The mark [7] stands for this setting: second series of dose-response columns.

On to `CO[C@H]1CN(C)C(=O)c2cc(NC(=O)c3cccc(F)c3)ccc2OC[C@H](C)N(C)C[C@H]1C` [BRD-K79512815-001-01-8], for which, in assay [1] (first series of columns), the “normalized signal at concentration 0.000508053” value is 0.92, the “normalized signal at concentration 0.00152416” value was 0.8929, the “normalized signal at concentration 0.00457247” value is recorded as 0.8757 and the “normalized signal at concentration 0.0137174” value is listed as 1.1664. In assay [1] (first series of columns), the “normalized signal at concentration 0.0411523” value came out at 0.9194, the “normalized signal at concentration 0.123457” value worked out at 0.814, the “normalized signal at concentration 0.37037” value was found to be 0.9475 and the “normalized signal at concentration 1.11111” value is given as 0.9407. Moreover, in assay [1] (first series of columns), the “normalized signal at concentration 3.33333” value stood at 0.9302 and the “normalized signal at concentration 10” value is 0.6026. Moreover, the pIC50 in assay [1] (sheet 2nd round, Pb-Luc exoerythrocytic stage, 10-point dose response, top concentration 10) was less than 5.00. Further, in assay [1] (setting [3]), the “normalized signal at concentration 0.000508053” value came out at 0.9673, the “normalized signal at concentration 0.00152416” value turned out to be 1.022, the “normalized signal at concentration 0.00457247” value is given as 0.9573 and the “normalized signal at concentration 0.0137174” value turned out to be 0.903. Moreover, in assay [1] (setting [3]), the “normalized signal at concentration 0.0411523” value was found to be 0.8874, the “normalized signal at concentration 0.123457” value was determined as 0.788, the “normalized signal at concentration 0.37037” value amounted to 0.9616 and the “normalized signal at concentration 1.11111” value is 0.8772. Moreover, in assay [1] (setting [3]), the “normalized signal at concentration 3.33333” value was 0.9295 and the “normalized signal at concentration 10” value is 0.8924. In assay [1] (setting [4]), the “PbLuc_max_inhibition (%)” value worked out at 40%. In assay [2] (sheet 2nd round), the pIC50 was less than 5.00. Moreover, in assay [2] (setting [4]), the “Tox_max_inhibition (%)” value was 6%.
In the case of `COCC(=O)N1C[C@H](C)[C@@H](OC)CN(C)C(=O)c2ccc(NC(=O)Nc3cccc(F)c3)cc2OC[C@@H]1C` [BRD-K86826411-001-01-1], in assay [1] (setting [5]), the “normalized signal at concentration 10” value is given as 0.9867. In addition, in assay [1] (first series), the “normalized signal at concentration 0.000508053” value came to 0.8374, the “normalized signal at concentration 0.00152416” value stood at 0.9593, the “normalized signal at concentration 0.00457247” value was 1.078 and the “normalized signal at concentration 0.0137174” value stood at 1.13. Besides, in assay [1] (first series), the “normalized signal at concentration 0.0411523” value worked out at 1.203, the “normalized signal at concentration 0.123457” value was determined as 1.151, the “normalized signal at concentration 0.37037” value came out at 1.155 and the “normalized signal at concentration 1.11111” value came out at 1.129. For the same molecule, in assay [1] (first series), the “normalized signal at concentration 3.33333” value was 1.057. Besides, the pIC50 in assay [1] (setting [6]) was less than 5.00. The “normalized signal at concentration 10” value in assay [1] (setting [7]) was found to be 0.6676. For the same molecule, in assay [1] (second series), the “normalized signal at concentration 0.000508053” value came to 0.905, the “normalized signal at concentration 0.00152416” value came out at 1.0576, the “normalized signal at concentration 0.00457247” value is 1.018 and the “normalized signal at concentration 0.0137174” value came to 1.011. In addition, in assay [1] (second series), the “normalized signal at concentration 0.0411523” value is 0.9885, the “normalized signal at concentration 0.123457” value is given as 1.0489, the “normalized signal at concentration 0.37037” value is on record as 0.9498 and the “normalized signal at concentration 1.11111” value was determined as 1.1227. The “normalized signal at concentration 3.33333” value in assay [1] (second series) is on record as 1.155. Also, in assay [1] (setting [4]), the “PbLuc_max_inhibition (%)” value amounted to 33%. For the same molecule, the pIC50 in assay [2] (sheet 2nd round) was less than 5.00. In addition, the “Tox_max_inhibition (%)” value in assay [2] (setting [4]) came to 13%.
In the case of `CCc1csc(N2[C@H](CO)[C@H](c3ccccc3)[C@@H]2CNC)n1` [BRD-K87640608-001-01-8], the “normalized signal at concentration 10” value in assay [1] (setting [5]) is on record as 0.6764. For the same molecule, in assay [1] (first series), the “normalized signal at concentration 0.000508053” value was determined as 0.8428, the “normalized signal at concentration 0.00152416” value amounted to 0.8502, the “normalized signal at concentration 0.00457247” value is given as 0.7149 and the “normalized signal at concentration 0.0137174” value turned out to be 0.7931. For the same molecule, in assay [1] (first series), the “normalized signal at concentration 0.0411523” value is reported as 0.9257, the “normalized signal at concentration 0.123457” value is on record as 0.8195, the “normalized signal at concentration 0.37037” value is 0.9077 and the “normalized signal at concentration 1.11111” value stood at 1.056. Moreover, in assay [1] (first series), the “normalized signal at concentration 3.33333” value is 0.9058. Also, in assay [1] (setting [6]), the pIC50 was less than 5.00. For the same molecule, the “normalized signal at concentration 10” value in assay [1] (setting [7]) was determined as 0.7611. Also, in assay [1] (second series), the “normalized signal at concentration 0.000508053” value is 1.024, the “normalized signal at concentration 0.00152416” value was 0.9242, the “normalized signal at concentration 0.00457247” value is 1.045 and the “normalized signal at concentration 0.0137174” value turned out to be 0.9989. Also, in assay [1] (second series), the “normalized signal at concentration 0.0411523” value stood at 0.8698, the “normalized signal at concentration 0.123457” value is recorded as 0.9345, the “normalized signal at concentration 0.37037” value came to 1.174 and the “normalized signal at concentration 1.11111” value turned out to be 1.035. The “normalized signal at concentration 3.33333” value in assay [1] (second series) was found to be 0.7843. Besides, the “PbLuc_max_inhibition (%)” value in assay [1] (setting [4]) was found to be 32%. Moreover, in assay [2] (sheet 2nd round), the pIC50 was less than 5.00. The “Tox_max_inhibition (%)” value in assay [2] (setting [4]) stood at 3.76%.
`COc1ccccc1S(=O)(=O)N(C)C[C@@H]1OCc2ccccc2-c2ccccc2C(=O)N([C@H](C)CO)C[C@@H]1C` [BRD-K88384060-001-01-3]: in assay [1] (concentration 0.000508053, first series), the “normalised signal at concentration 0.000508053 (first series)” value is listed as 0.762. Besides, in assay [1] (concentration 0.000508053, second series), the “normalised signal at concentration 0.000508053 (second series)” value amounted to 0.8443. Also, the “normalised signal at concentration 0.00152416 (first series)” value in assay [1] (concentration 0.00152416, first series) is listed as 0.9256. Also, in assay [1] (concentration 0.00152416, second series), the “normalised signal at concentration 0.00152416 (second series)” value is on record as 0.8309. Moreover, the “normalised signal at concentration 0.00457247 (first series)” value in assay [1] (concentration 0.00457247, first series) turned out to be 0.8786. Besides, in assay [1] (concentration 0.00457247, second series), the “normalised signal at concentration 0.00457247 (second series)” value amounted to 0.8245. For the same molecule, the “normalised signal at concentration 0.0137174 (first series)” value in assay [1] (concentration 0.0137174, first series) is 0.8282. Also, the “normalised signal at concentration 0.0137174 (second series)” value in assay [1] (concentration 0.0137174, second series) worked out at 0.879. In addition, the “normalised signal at concentration 0.0411523 (first series)” value in assay [1] (concentration 0.0411523, first series) is 0.9277. Besides, the “normalised signal at concentration 0.0411523 (second series)” value in assay [1] (concentration 0.0411523, second series) is on record as 0.9618. For the same molecule, in assay [1] (concentration 0.123457, first series), the “normalised signal at concentration 0.123457 (first series)” value was 0.8826. In addition, the “normalised signal at concentration 0.123457 (second series)” value in assay [1] (concentration 0.123457, second series) turned out to be 1.0267. The “normalised signal at concentration 0.37037 (first series)” value in assay [1] (concentration 0.37037, first series) came out at 0.7577. Moreover, in assay [1] (concentration 0.37037, second series), the “normalised signal at concentration 0.37037 (second series)” value was determined as 1.11. Also, the “normalised signal at concentration 1.11111 (first series)” value in assay [1] (concentration 1.11111, first series) is reported as 0.8863. In addition, the “normalised signal at concentration 1.11111 (second series)” value in assay [1] (concentration 1.11111, second series) came out at 0.7661. The “normalised signal at concentration 3.33333 (first series)” value in assay [1] (concentration 3.33333, first series) was determined as 0.8204. Moreover, the “normalised signal at concentration 3.33333 (second series)” value in assay [1] (concentration 3.33333, second series) turned out to be 0.8055. For the same molecule, the “normalised signal at concentration 10 (first series)” value in assay [1] (concentration 10, first series of dose columns) is on record as 0.8642. Besides, in assay [1] (concentration 10, second series of dose columns), the “normalised signal at concentration 10 (second series)” value came out at 0.7248. For the same molecule, in assay [1] (sheet "2nd round", Broad compounds, dose response top concentration 10), the pIC50 is less than 5.00. Besides, in assay [1] (sheet "2nd round"), the “PbLuc_max_inhibition (%)” value is listed as 28%. Further, in assay [2] (sheet "2nd round"), the pIC50 is less than 5.00 and the “Tox_max_inhibition (%)” value is recorded as 2.77%.
